This note sets out measurements from patent US6514510B1, “Insecticidal and miticidal compositions” (BASF Aktiengesellschaft, priority 1996, dated 2003).

For data set [1], the system named is Kanzawa spider mite (Tetranychus kanzawai kishida) which are resistant to Compound A. Description: Miticidal effect against female imagines of Kanzawa spider mite resistant to Compound A (leaf disk spray test). The note with it: for LC50 (ppm): single active ingredient, female imago, Compound A-resistant colony, mortality two days after spray treatment, probit method. As to the method: Round leaf disks (2 cm diameter) are cut out of a first leaf of kidney bean by using a leaf punch and 4 sheets of the leaf disks are placed on wet sanitary cotton on a PVC cup of 8 cm diameter.
Each PVC cup is sprayed with 3.5 ml of the test solution by using a rotary spray tower (manufactured by Mizuho Scientific Co., Ltd.) and stored in a constant temperature chamber held at 25±° C. (32 individuals are tested per concentration, 4-5 concentrations are evaluated per formulation and 2 performances are repeated). Two days after treatment, the number of living and dead female imagines of Kanzawa spider mite (Tetranychus kanzawai kishida) on the leaf disk is investigated and the mortality (%) is calculated according to the formula shown hereinbelow. From these mortality data, the LC50 values are obtained by conventional probit method. [formula]
For the above-mentioned values larger than 100, the larger value indicates a stronger synergistic action. For the value equal to 100, an additive action is indicated. For the values less than 100, the lesser value indicates a larger antagonistic action. A more detailed description of the calculation of the co-toxicity coefficient by the above-mentioned Sun and Johnson's method is the following. […] [formula]

The subject of data set [2] is susceptible strain of spider mite. Description: Effect of Compound A against a susceptible strain of spider mite. Format: in vivo. The note with it: not mentioned in the table.

As to `CC1(C)[C@H](C(=O)O[C@@H](C#N)c2cccc(Oc3ccccc3)c2)[C@@H]1/C=C(\Cl)C(F)(F)F` (racemic) [Cyhalothrin, (RS)-α-cyano-3-phenoxybenzyl (Z)-(1RS,3RS)-3-(2-chloro-3,3,3-trifluoropropenyl)-2,2-dimethylcyclopropanecarboxylate], in data set [1], the “LC50 (ppm)” value was determined as 590 ppm.
Same read-out and setting: with `CC1(C)C(C=C(Cl)Cl)C1C(=O)OC(C#N)c1cccc(Oc2ccccc2)c1` (racemic) [Cypermethrin, (RS)-α-cyano-3-phenoxybenzyl (1RS,3RS,1RS,3RS)-3-(2,2-dichlorovinyl)-2,2-dimethylcyclopro-panecarboxylate] the figure was 2500 ppm; with `CC1(C)C(C(=O)OC(C#N)c2cccc(Oc3ccccc3)c2)C1(C)C` (racemic) [Fenpropathrin, (RS)-α-cyano-3-phenoxybenzyl 2,2,3,3-tetramethyl-cyclopropanecarboxylate], 290 ppm; with `Cc1c(COC(=O)[C@@H]2[C@H](/C=C(\Cl)C(F)(F)F)C2(C)C)cccc1-c1ccccc1` (racemic) [Bifenthrin, 2-methylbiphenyl-3-ylmethyl (Z)-(1RS,3RS)-3-(2-chloro-3,3,3-trifluoroprop-1-enyl)-2,2-dimethylcyclopropanecar-boxylate], 20 ppm.
In the case of `CCOc1ccc(C(C)(C)COCc2cccc(Oc3ccccc3)c2)cc1` [Ethofenprox, 2-(4-ethoxyphenyl)-2-methylpropyl 3-phenoxybenzyl ether], the “LC50 (ppm)” value in data set [1] is listed as 620 ppm.
Consider `CC1(C)C(C=C(Cl)Cl)C1C(=O)OCc1cccc(Oc2ccccc2)c1` (stereo not drawn) [Permethrin, 3-phenoxybenzyl (1RS,3RS; 1RS,3RS)-3-(2,2-dichlorovinyl)-2,2-dimethylcyclopropanecarboxylate], for which the “LC50 (ppm)” value in data set [1] is recorded as 440 ppm.
Regarding `CCOCn1c(-c2ccc(Cl)cc2)c(C#N)c(Br)c1C(F)(F)F` [Compound A, 4-bromo-2-(4-chlorophenyl)-1-(ethoxymethyl)-5-(trifluoromethyl)-pyrrole-3-carbonitrile], the “resistance against Compound A” value in data set [1] (resistant strain versus susceptible strain, LC50 values) is reported as about 300 fold. Besides, the “LC50 (ppm)” value in data set [1] came out at 1500 ppm. Besides, the LC50 value entry in data set [2] is “about 5 ppm”.
With `CC(C)[C@H](Nc1ccc(C(F)(F)F)cc1Cl)C(=O)OC(C#N)c1cccc(Oc2ccccc2)c1` (stereo partly drawn) [Fluvalinate, (RS)-α-cyano-3-phenoxy-benzyl N-(2-chloro-α,α,α,α-trifluoro-p-tolyl)-D-valinate], the “LC50 (ppm)” value in data set [1] stood at 180 ppm.
Turning to `CC1(C)C(C=C(Cl)Cl)C1C(=O)OC(C#N)c1ccc(F)c(Oc2ccccc2)c1` (racemic) [Cyfluthrin, (RS)-α-cyano4-fluoro-3-phenoxybenzyl (1RS,3RS; 1RS,3SR)-3-(2,2-dichlorovinyl)-2,2-dimethylcyclopropanecarboxylate], the “LC50 (ppm)” value in data set [1] was determined as 1500 ppm.
